As usually defined, the IC50 is the concentration needed to halve the response being measured.

Chain of c-kit WT (P10721 26-976): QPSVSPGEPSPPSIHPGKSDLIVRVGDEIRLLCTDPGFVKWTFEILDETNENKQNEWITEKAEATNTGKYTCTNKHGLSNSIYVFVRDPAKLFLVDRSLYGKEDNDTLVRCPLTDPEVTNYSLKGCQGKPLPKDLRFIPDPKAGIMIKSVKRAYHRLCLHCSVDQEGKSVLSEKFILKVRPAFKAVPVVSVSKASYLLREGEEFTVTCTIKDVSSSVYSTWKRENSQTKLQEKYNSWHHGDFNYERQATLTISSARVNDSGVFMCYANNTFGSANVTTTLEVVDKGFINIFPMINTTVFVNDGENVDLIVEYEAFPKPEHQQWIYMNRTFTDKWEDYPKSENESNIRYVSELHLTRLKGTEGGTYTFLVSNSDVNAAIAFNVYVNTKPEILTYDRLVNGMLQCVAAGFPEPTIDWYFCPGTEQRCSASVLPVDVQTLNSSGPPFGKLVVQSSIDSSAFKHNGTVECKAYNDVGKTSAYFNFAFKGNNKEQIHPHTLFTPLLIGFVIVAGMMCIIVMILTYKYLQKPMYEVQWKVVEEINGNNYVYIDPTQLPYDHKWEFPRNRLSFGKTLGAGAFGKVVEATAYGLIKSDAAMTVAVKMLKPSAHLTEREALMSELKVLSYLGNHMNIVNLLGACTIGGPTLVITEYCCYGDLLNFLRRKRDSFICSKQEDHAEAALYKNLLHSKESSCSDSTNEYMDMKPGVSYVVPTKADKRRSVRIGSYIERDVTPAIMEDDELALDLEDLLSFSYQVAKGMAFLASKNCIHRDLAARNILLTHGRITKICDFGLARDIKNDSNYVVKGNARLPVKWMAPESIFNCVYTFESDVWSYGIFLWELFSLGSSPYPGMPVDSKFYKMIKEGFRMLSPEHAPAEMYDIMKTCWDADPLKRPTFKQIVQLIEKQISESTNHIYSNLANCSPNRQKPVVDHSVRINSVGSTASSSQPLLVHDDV

The assay addresses c-kit WT (Homo sapiens (Human), UniProt P10721). Kind of assay: Proliferation assay (CellTiter-Blue) on BaF3 Kit WT cell line. The format is cell-based. Conditions: BaF3 Kit WT cell line (murine Ba/F3 expressing Human Kit WT, with murine SCF), 48 hours. On the procedure: Procedures of C-Kit WT Inhibition Assays:
Colorimetric cell proliferation and viability assay (reagent CellTiter-Blue purchased from Promega cat N°G8081) was performed on BaF3 Kit WT cell line.
A total of 2.10^4 cells/50 μl were seeded per well of a 96-wells plate. Treatment was initiated by addition of a 2× drug solution of ½ serial dilutions ranging from 0 to 10 μM. After incubating for 48 hours at 37° C., 10 μl of a ½ dilution of CellTiter-Blue reagent was added to each well and the plates were returned to the incubator for an additional 4 hours. The fluorescence intensity from the CellTiter-Blue reagent is proportional to the number of viable cells and data were recorded (544Ex/590Em) using a POLARstar OMEGA microplate reader (BMG LabteckSarl). A background control without cells was used as a blank. The positive control of the assay corresponds to the cell proliferation obtained in the absence of drug treatment (100% proliferation). Each sample was done in triplicate. The results were expressed as a percentage of the proliferation obtained in absence of treatment. All drugs were prepared as 20 mM stock solutions in DMSO and conserved at −80° C. Drug dilutions were made fresh in medium before each experiment. A DMSO control was included in each experiment.
The cell line expressing Human Kit WT was derived from the murine IL3-dependent Ba/F3 proB lymphoid cells. Ba/F3 Kit WT cells were maintained in RPMI medium containing 10% FCS and supplemented with 250 ng/ml of recombinant murine SCF.
Background: The colour change of resazurin is a common sign of viable cells or microbes.
Take `Cc1cc2[nH]c(-c3cccc(C(F)(F)F)c3)nc2cc1Nc1nc(-c2ccnc(Cl)c2)cs1` [Compound 106, [4-(2-Chloro-pyridin-4-yl)-thiazol-2-yl]-[6-methyl-2-(3-trifluoromethyl-phenyl)-1H-benzoimidazol-5-yl]-amine]: the IC50 was ≤ 1 µM. In the case of `Cc1ccc(-c2nc3cc(C)c(Nc4nc(-c5cccnc5)cs4)cc3[nH]2)s1` [Compound 078, [6-Methyl-2-(5-methyl-thiophen-2-yl)-3H-benzoimidazol-5-yl]-(4-pyridin-3-yl-thiazol-2-yl)-amine], the IC50 is ≤ 1 µM.

As to `CCn1c(-c2cccc(C(F)(F)F)c2)nc2cc(Nc3nc(-c4ccncc4)cs3)c(C)cc21` [Compound 105, [1-Ethyl-6-methyl-2-(3-trifluoromethyl-phenyl)-1H-benzoimidazol-5-yl]-(4-pyridin-4-yl-thiazol-2-yl)-amine], the IC50 was ≤ 1 µM. In the case of `Cc1cc2nc(-c3ccc(CN4CCN(C)CC4)cc3)[nH]c2cc1Nc1ncc(-c2cccnc2)o1` [Compound 006, {6-Methyl-2-[4-(4-methyl-piperazin-1-ylmethyl)-phenyl]-3H-benzoimidazol-5-yl}-(5-pyridin-3-yl-oxazol-2-yl)-amine], the IC50 is 1 to 10 µM. With `Cc1cc2c(cc1Nc1nc(-c3ccncc3)cs1)nc(-c1ccc(CN3CCN(C)CC3)cc1)n2C` [Compound 099, {1,6-Dimethyl-2-[4-(4-methyl-piperazin-1-ylmethyl)-phenyl]-1H-benzoimidazol-5-yl}-(4-pyridin-4-yl-thiazol-2-yl)-amine], the IC50 is 1 to 10 µM. As to `Cc1cc2nc(-c3ccc(CN4CCN(C)CC4)cc3)[nH]c2cc1Nc1nc(-c2ccncc2)cs1` [Compound 048, {6-Methyl-2-[4-(4-methyl-piperazin-1-ylmethyl)-phenyl]-1H-benzoimidazol-5-yl}-(4-pyridin-4-yl-thiazol-2-yl)-amine], the concentration for half-maximal inhibition (IC50) lay in the range of 1 to 10 µM. As for `Cc1cc2nc(-c3ccc(C(F)(F)F)cc3)[nH]c2cc1Nc1nc(-c2cncnc2)cs1` [Compound 067, [6-Methyl-2-(4-trifluoromethyl-phenyl)-1H-benzoimidazol-5-yl]-(4-pyrimidin-5-yl-thiazol-2-yl)-amine], the figure is 1 to 10 µM. As for `C#Cc1cccc(-c2nc3cc(Nc4nc(-c5cccnc5)cs4)c(C)cc3n2C)c1` [Compound 146, [2-(3-Ethynyl-phenyl)-1,6-dimethyl-1H-benzoimidazol-5-yl]-(4-pyridin-3-yl-thiazol-2-yl)-amine], the figure is ≤ 1 µM; as for `Cc1cc2c(cc1Nc1nc(-c3ccncc3)cs1)nc(-c1ccc(C(F)F)cc1)n2C` [Compound 094, [2-(4-Difluoromethyl-phenyl)-1,6-dimethyl-1H-benzoimidazol-5-yl]-(4-pyridin-4-yl-thiazol-2-yl)-amine], ≤ 1 µM; as for `Cc1cc2nc(-c3cc(CN4CCOCC4)cc(C(F)(F)F)c3)[nH]c2cc1Nc1nccc(-c2cccnc2)n1` [Compound 028], ≤ 1 µM. As to `Cc1cc2nc(-c3cc(CN4CCCCC4)cc(C(F)(F)F)c3)[nH]c2cc1Nc1nccc(-c2cccnc2)n1` [Compound 035, [6-Methyl-2-(3-piperidin-1-ylmethyl-5-trifluoromethyl-phenyl)-3H-benzoimidazol-5-yl]-(4-pyridin-3-yl-pyrimidin-2-yl)-amine], the IC50 was ≤ 1 µM.

As for `Cc1cc2nc(-c3cncn3C)[nH]c2cc1Nc1nc(-c2cccnc2)cs1` [Compound 077, [6-Methyl-2-(3-methyl-3H-imidazol-4-yl)-3H-benzoimidazol-5-yl]-(4-pyridin-3-yl-thiazol-2-yl)-amine], the IC50 was 1 to 10 µM. The compound `Cc1ccc(-c2nc3cc(C)c(Nc4nc(-c5cccnc5)cs4)cc3[nH]2)cc1` [Compound 004, (6-Methyl-2-p-tolyl-3H-benzoimidazol-5-yl)-(4-pyridin-3-yl-thiazol-2-yl)-amine] came in with an IC50 of 1 to 10 µM. As to `Cc1cc2c(cc1Nc1nc(-c3ccncc3)cs1)nc(-c1cccc(C(F)(F)F)c1)n2C` [Compound 082, [1,6-Dimethyl-2-(3-trifluoromethyl-phenyl)-1H-benzoimidazol-5-yl]-(4-pyridin-4-yl-thiazol-2-yl)-amine], the IC50 is ≤ 1 µM. For `COc1cccc(-c2nc3cc(Nc4nc(-c5ccncc5)cs4)c(C)cc3n2C)c1` [Compound 125, [2-(3-Methoxy-phenyl)-1,6-dimethyl-1H-benzoimidazol-5-yl]-(4-pyridin-4-yl-thiazol-2-yl)-amine], the half-maximal inhibitory concentration (IC50) was ≤ 1 µM.

As for `Cc1cc2c(cc1Nc1nc(-c3ccc(C#N)cc3)cs1)nc(-c1cccc(C(F)F)c1)n2C` [Compound 111, 4-{2-[2-(3-Difluoromethyl-phenyl)-1,6-dimethyl-1H-benzoimidazol-5-ylamino]-thiazol-4-yl}-benzonitrile], the concentration for half-maximal inhibition (IC50) is ≤ 1 µM. The compound `Cc1cc2nc(-c3cccc(S(C)(=O)=O)c3)[nH]c2cc1Nc1nccc(-c2cccnc2)n1` [Compound 038, [2-(3-Methanesulfonyl-phenyl)-6-methyl-3H-benzoimidazol-5-yl]-(4-pyridin-3-yl-pyrimidin-2-yl)-amine] returned an IC50 of 1 to 10 µM.

Take `C#Cc1cccc(-c2nc3cc(Nc4nc(-c5cccnc5)cs4)c(C)cc3[nH]2)c1` [Compound 139, [2-(3-Ethynyl-phenyl)-6-methyl-1H-benzoimidazol-5-yl]-(4-pyridin-3-yl-thiazol-2-yl)-amine]: the IC50 is ≤ 1 µM. `Cc1cc2nc(-c3cc(CN4CCCC4)cc(C(F)(F)F)c3)[nH]c2cc1Nc1nccc(-c2cccnc2)n1` [Compound 029, [6-Methyl-2-(3-pyrrolidin-1-ylmethyl-5-trifluoromethyl-phenyl)-3H-benzoimidazol-5-yl]-(4-pyridin-3-yl-pyrimidin-2-yl)-amine]: the IC50 is ≤ 1 µM. Take `Cc1cc2nc(Cc3ccccc3)[nH]c2cc1Nc1nc(-c2cccnc2)cs1` [Compound 022, (2-Benzyl-6-methyl-3H-benzoimidazol-5-yl)-(4-pyridin-3-yl-thiazol-2-yl)-amine]: the IC50 lay within 1 to 10 µM.

As to `Cc1cc2c(cc1Nc1nc(-c3ccncc3)cs1)nc(-c1cccc(C(C)(C)C)c1)n2C` [Compound 152, [2-(3-tert-Butyl-phenyl)-1,6-dimethyl-1H-benzoimidazol-5-yl]-(4-pyridin-4-yl-thiazol-2-yl)-amine], the IC50 was ≤ 1 µM. On to `Cc1cc2[nH]c(-c3cccc(C(C)(C)C)c3)nc2cc1Nc1nc(-c2ccncc2)cs1` [Compound 153, [2-(3-tert-Butyl-phenyl)-6-methyl-1H-benzoimidazol-5-yl]-(4-pyridin-4-yl-thiazol-2-yl)-amine], for which the IC50 was ≤ 1 µM. For the compound `Cc1cc2nc(-c3cccc(C(F)(F)F)c3)[nH]c2cc1Nc1nc(-c2cncnc2)cs1` [Compound 062, [6-Methyl-2-(3-trifluoromethyl-phenyl)-3H-benzoimidazol-5-yl]-(4-pyrimidin-5-yl-thiazol-2-yl)-amine], the IC50 is ≤ 1 µM. As for `Cc1cc2[nH]c(-c3cccc(S(C)(=O)=O)c3)nc2cc1Nc1nc(-c2cccnc2)cs1` [Compound 121, [2-(3-Methanesulfonyl-phenyl)-6-methyl-1H-benzoimidazol-5-yl]-(4-pyridin-3-yl-thiazol-2-yl)-amine], the figure is ≤ 1 µM.

With `Cc1cc2nc(-c3cccc(N4CCN(C)CC4)c3)[nH]c2cc1Nc1nccc(-c2cccnc2)n1` [Compound 015, {6-Methyl-2-[3-(4-methyl-piperazin-1-yl)-phenyl]-3H-benzoimidazol-5-yl}-(4-pyridin-3-yl-pyrimidin-2-yl)-amine], the IC50 fell in the range of 1 to 10 µM. In turn, `Cc1cc2c(cc1Nc1nc(-c3cccnc3)cs1)nc(-c1ccc(CN3CCN(C)CC3)cc1)n2C` [Compound 098, {1,6-Dimethyl-2-[4-(4-methyl-piperazin-1-ylmethyl)-phenyl]-1H-benzoimidazol-5-yl}-(4-pyridin-3-yl-thiazol-2-yl)-amine] showed an IC50 of 1 to 10 µM.

`CCn1c(-c2cccc(C(F)(F)F)c2)nc2cc(Nc3nc(-c4cccnc4)cs3)c(C)cc21` [Compound 110, [1-Ethyl-6-methyl-2-(3-trifluoromethyl-phenyl)-1H-benzoimidazol-5-yl]-(4-pyridin-3-yl-thiazol-2-yl)-amine]: the IC50 was ≤ 1 µM. Consider `Cc1cc2nc(-c3cccc(OC(F)(F)F)c3)[nH]c2cc1Nc1nc(-c2ccc(C#N)cc2)cs1` [Compound 075, 4-{2-[6-Methyl-2-(3-trifluoromethoxy-phenyl)-3H-benzoimidazol-5-ylamino]-thiazol-4-yl}-benzonitrile], for which the IC50 was ≤ 1 µM. As for `Cc1cc2c(cc1Nc1nc(-c3ccncc3)cs1)nc(-c1cccc(N(C)C)c1)n2C` [Compound 133], the figure is ≤ 1 µM. In turn, `Cc1cc2nc(-c3cncc(C(F)(F)F)c3)[nH]c2cc1Nc1nccc(-c2cccnc2)n1` [Compound 042, [6-Methyl-2-(5-trifluoromethyl-pyridin-3-yl)-3H-benzoimidazol-5-yl]-(4-pyridin-3-yl-pyrimidin-2-yl)-amine] registered an IC50 of 1 to 10 µM. With `CCn1c(-c2cccc(C(F)F)c2)nc2cc(Nc3nc(-c4cccnc4)cs3)c(C)cc21` [Compound 109], the IC50 is ≤ 1 µM. On to `Cc1cc2nc(-c3cccc(OC(F)(F)F)c3)[nH]c2cc1Nc1nc(-c2cccnc2)cs1` [Compound 026], for which the IC50 is ≤ 1 µM.

Source of the values: patent publication US10202370B2, “Benzimidazole derivatives as selective proteine kinase inhibitors” (AB SCIENCE, priority 2013, dated 2019).
